This is an account of results in US20120258944A1, “ANTIOXIDANTS FOR USE IN THERAPY” (priority 2009, published 2012).

For series [1], the system named is human umbilical vein endothelial cells (HUVEC). As to the kind of experiment: XTT in vitro toxicology test in human umbilical vein endothelial cells. Particulars: for toxic concentration: HUVEC; for relative toxicity among the compounds: human endothelial cells, up to 72 hours. It is filed as cell-based. How it is done:
As a negative control, cells incubated with medium containing 0.5% DMSO (corresponding to the highest DMSO concentration above) was used. As a positive control, cells were incubated in the presence of 20% EtOH.
After the incubation with the compounds, the wells were washed with PBS to remove substances which could interfere with the assay. 40 μl of fresh medium 200 without phenol red was added together with 10 μl XTT substance (according to the manufacturer's instructions). The plates were incubated for 8 hrs and the colour development was monitored by measuring the absorbance at 450 nm.
After incubation, the number of viable cells was assessed by observing the amount of metabolized XTT (2,3-bis[2-methoxy-4-nitro-5-sulphophenyl]-2H-tetrazolium-5-carboxyanilide inner salt).
On the technique in general: Tetrazolium dyes change colour on reduction, which living cells bring about.

Series [2] has the same test system. As to the kind of experiment: Visual evaluation of HUVECs under the microscope (dislodging from the surface). Particulars: HUVEC. How it is done:
Cells were harvested and resuspended in supplemented medium 200 without phenol red. 50 000 cells were added in duplicates to 96-well plates. The compounds were tested on HUVECs according to the following concentrations.
The compounds were diluted in Medium 200 from the 0.1M stock solution. The toxic effects of the compounds were tested after 24 hrs, 48 hrs and 72 hrs.
By visually looking at the cells under the microscope and estimating the dislodging from the surface, the state of the cells was evaluated.

The test system of series [3] is human Neutrophils and human PBMCs. As to the kind of experiment: Intracellular ROS, luminol luminescence with SOD and catalase, PMA or fMLF stimulated cells. The format is cell-based. Particulars: PMA or fMLF 30 ng/ml; compounds 120, 60, 30 microM; FIG. 5-8. Here is the method: (§1) Validation was performed by stimulating cells with PMA and fMLF. When treated with the antioxidants, altered level of ROS production from the cells was measured using luminometry. Both intracellular and extracellular effect on ROS on the cells was analyzed using isoluminol (extracellular) and luminol (intracellular when co-administered with SOD and catalase) (Dahlgren et al. “Respiratory burst in human neutrophils”, Journal of Immunological Methods 232 1999; 3-14).
The luminol reagent buffer is made of HBSS buffer (with Ca^2+), luminol and SOD/Catalase.
(§2) 1) Add 25 microL of antioxidants to assay plate to get proper concentrations in a total reaction volume of 100 micro-L. 2) Add 25 microL of PMA (120 ng/ml) and fMLF (120 ng/ml) to assay plate to get concentration of 30 ng/ml in a total reaction volume of 100 microL. 3) Add 50 microL of cell suspension (2 million cells/ml) to each well. Immediately after addition of cell suspension initiate luminescence measurement; the reaction starts at once when the cells are added to the assay plate. Measurement points are taken at 1-minute intervals for 25 minutes. Data is presented as AUC (Area Under Curve) by a summary of all collected measurements for each well.
FIG. 5: Intracellular ROS analyzed by Luminol (intracellular ROS) induced luminescence in human Neutrophils. ROS induced with PMA (30 ng/ml) with 200, 100 or 0 microM NAC. Concentrations of compounds 120, 60, 30 and 0 microM final concentrations.
FIG. 6: Intracellular ROS analyzed by Luminol (intracellular ROS) induced luminescence in human Neutrophils. ROS induced with fMLF (30 ng/ml) with 200, 100 or 0 microM NAC. Concentrations of compounds 120, 60, 30 and 0 microM final concentrations.
FIG. 7: Intracellular ROS analyzed by Luminol (intracellular ROS) induced luminescence in human PBMCs. ROS induced with PMA (30 ng/ml) with 200, 100 or 0 microM NAC. Concentrations of compounds 120, 60, 30 and 0 microM final concentrations.
FIG. 8: Intracellular ROS analyzed by Luminol (intracellular ROS) induced luminescence in human PBMCs. […]

Series [4] has as its system human neutrophils and PBMCs, rat neutrophils and PBMCs, human PLB-985 cell line. The experiment in a line: Extracellular ROS, isoluminol luminescence, PMA or fMLF stimulated cells. The format is cell-based. Conditions: PMA or fMLF 30 ng/ml; compounds 120 to 0 microM; FIG. 1-4, 9-12, 14-17. How it is done:
as §1
The isoluminol reagent buffer was made of HBSS buffer (with Ca^2+), Isoluminol and HRP.
as §2
FIG. 1: Extracellular ROS analyzed by Isoluminol induced luminescence in human Neutrophils. ROS induced with PMA (30 ng/ml) with 200, 100 or 0 microM NAC. Concentrations of compounds 120, 60, 30 and 0 microM final concentrations.
FIG. 9: Extracellular ROS analyzed by Isoluminol induced luminescence in rat Neutrophils. ROS induced with PMA (30 ng/ml) with 200, 100 or 0 microM NAC. Concentrations of compounds 120, 60, 30 and 0 microM final concentrations.
FIG. 11: Extracellular ROS analyzed by Isoluminol induced luminescence in human PLB-985 cell line. ROS induced with PMA (30 ng/ml) with 200, 100 or 0 microM NAC. Concentrations of compounds 120, 60, 30 and 0 microM final concentrations.

A further series deals with PLB985 cells. The experiment in a line: Resazurin based in vitro toxicology assay (TOX8). It is filed as cell-based, human. Particulars: PLB985, 3 hours, 120 μM. Here is the method: The viability of cells treated with the compounds was also analyzed using a Resazurin based in vitro Toxicology Assay Kit (SigmaAldrich TOX8). Resazurin systems measure the metabolic activity of living cell. Resazurin in its oxidized form (blue) is reduced (red) by living cells and the amount of dye conversion is measured fluorometrically or spectrophotometrically indicating the degree of cytotoxicity.
1) 75 micro-l of PLB985 cells (1 million cells/ml) is mixed with 25 micro-l of Compounds 1, 2, 3 and D (480, 120, 15 and 0.48 micro-M) in a 96 well plate in duplicates. 2) 10 micro-L of Resazurin solution is added to each well and the plate is incubated at 37° C. for 3 hours. 3) Spectrophotometrical analysis is performed in plate reader at 600 and 690 nm.
FIG. 18: Cell viability of compounds in human PLB-985 cell line. Concentrations of compounds 120; 60; 30; 3.75; 0.12 and […] final concentrations. Measurement that indicates cell cytotoxicity (In vitro toxicology assay, TOX-8). The bars show increased level of cytotoxicity (analysis of absorbance of 600 nm substracted with absorbance 690 nm).

For series [5] the following is noted: cited from earlier work; for Inhibited Rate of Linoleic Acid Peroxidation (Rinh): two-phase model, N-acetylcysteine in the aqueous phase.
A further series concerns kidney slice. The experiment in a line: Organ model TBARS experiment (TBA-MDA assay) in kidney slices.
The nature of series [6]: ABTS radical cation assay (TEAC) in aqueous PBS buffer. Particulars: 6.08 micro-M, PBS buffer pH 7.4, after 5 min. How it is done:
In order to investigate its aqueous phase performance, we thought that it would be interesting to determine its Trolox Equivalent Antioxidant Capacity (TEAC) (Free Rad. Biol. Med. 1999, 26, 1231-1237) which has been used to quantify the antioxidant activity of biological fluids, extracts and pure compounds. The TEAC value is defined as the concentration of Trolox which has an equivalent antioxidant potential as a 1 mM solution of the compound under investigation (Free Rad. Biol. Med. 1996, 20, 933-956).
A 2,2′-azinobis(3-ethylbenzothiazoline-6 sulphonic acid radical cation (ABTS•+) assay was used to determine relative TEAC values. To a preformed solution of ABTS•+ in PBS buffer, pH 7.4, with an absorbance slightly above 0.7 were added various amounts (3-30 microM) of organoselenium compound 1, Trolox, sodium ascorbate and N-acetylcysteine. The absorbance at 734 inn was recorded immediately after mixing and then every minute for the next 8 minutes.
Antioxidant activity as determined by the capacity of the antioxidant to decolorize the ABTS^+ radical cation was determined essentially as described in the literature (Acc. Chem. Res. 1986, 19, 194-201). […] In a typical experiment, the antioxidant (1.52 micro-L of a 3.00 mM solution in MeOH or water; final concentration=6.08 micro-M) was syringed into 0.750 mL of the ABTS^+ radical cation solution. After initial mixing, the absorbance was recorded every minute for the next eight minutes.

Series [7] deals with MG-63, HEK-293, SHSY-5y, MRC-5 and CaCo-2-cells. As to the kind of experiment: Alamar Blue cell viability/proliferation assay. The format is cell-based, human. Conditions: 60 micro-M, day 1 to day 7. From the text: Alamar Blue is a non-toxic metabolic indicator for viable cells. Following uptake, the dye becomes reduced and causes a change in the colour of the cell. The colour change correlates reasonably well with the number of living cells in the sample.
Cells w/o antioxidant were used as controls.
Alamar Blue is a non-toxic metabolic indicator for viable cells. Upon uptake into the cell the dye becomes reduced and changes colour. The colour change correlates approximately with the number of living cells in the sample.
A general note: The colour change of resazurin is a common sign of viable cells or microbes.

The next series deals with liver microsomes. Conditions: cited from earlier work.
For series [8] the following is noted: coupled reductase method; cited from earlier work.

Take `CC[Te]c1nc(C)cc(C)c1O` [Comparative Compound 2]: the toxic concentration in series [1] (24 hrs incubation) came out at 500 µM; in [1] (48 hrs incubation), 200 µM; in series [1] (72 hrs incubation), 200 µM. Further, in series [1], the “relative toxicity among the compounds” value is given as “slightly more toxic than Compounds 1”. In addition, the “concentration at which cells were affected (visual)” value in series [2] (24 hrs) was 500 µM; in series [2] (48 hrs), 200 µM. In addition, the “antioxidative effect on intracellular ROS” value in series [3] is “lesser effect”. Also, the “antioxidative effect on extracellular ROS” value in series [4] is reported as “less potent”. The “cell viability at highest concentration” value in the series on PLB985 cells was “decrease in cell viability”. In [5], the “Inhibited Rate of Linoleic Acid Peroxidation (Rinh)” value is 22 µM/h.

In the case of `CCCCCCCC[Te]c1nc(C)cc(C)c1O` [Comparative Compound 3], the toxic concentration in series [1] (24 hrs incubation), in series [1] (48 hrs incubation) and in [1] (72 hrs incubation) was 100 µM each time. In [1], the “relative toxicity among the compounds” value was “most toxic compound”. In addition, the “concentration at which cells were affected (visual)” value in [2] (24 hrs) is 100 µM. Further, the “antioxidative effect on intracellular ROS” value in series [3] was “lesser effect”. Moreover, in series [4], the “antioxidative effect on extracellular ROS” value is reported as “less potent”. Further, in the series with PLB985 cells, the “cell viability at highest concentration” value is listed as “decrease in cell viability”. Also, the “Inhibited Rate of Linoleic Acid Peroxidation (Rinh)” value in series [5] was 8 µM/h.

On to `Cc1cc2c(c(C)c1O)CC(C)[Se]2` (stereo not shown) [Compound 6], for which the “potency as inhibitor of TBARS production compared with references” value in the series with kidney slice is “more potent inhibitors of TBARS production than Trolox and N-acetylcysteine”. Also, the “concentration able to inhibit 50% of the TBARS formation in the control incubation” value in the series on kidney slice (re-oxygenation after Argon) is “sub-micromolar”.

With `CC(=O)N[C@@H](CS)C(=O)O` [N-acetylcysteine], the TEAC value in [6] was found to be 2.4.

As to `Cc1c(C)c2c(c(C)c1O)CCC(C)(C(=O)O)O2` (stereo not shown) [Trolox], the “cell growth (Alamar Blue)” value in [7] is “normal cell growth patterns”.

For `Oc1ccc2c(c1)CCO2` [X═O], the “inhibition of lipid peroxidation in liver microsomes” value (from here on “inhibition of lipid peroxidation”) in the series with liver microsomes is recorded as “not effective”.

Consider `Oc1ccc2c(c1)CCS2` [X═S], for which, in the series with liver microsomes, the “inhibition of lipid peroxidation” value is reported as “not effective”.

For the molecule `Oc1ccc2c(c1)CC[Se]2` [X═Se], the “catalyst activity in the reaction between glutathione and hydroperoxide (thiol peroxidase activity)” value in series [8] is reported as “insignificant”. Further, in series [5] (two-phase system, absence of thiol reducing agent), the “inhibition of azo-initiated peroxidation of linoleic acid” value is given as “poor inhibitor”. Moreover, the “inhibition of lipid peroxidation” value in the series on liver microsomes is “not effective”.

Consider `Oc1ccc2c(c1)CC[Te]2` [X═Te], for which, in series [8], the “catalyst activity in the reaction between glutathione and hydroperoxide (thiol peroxidase activity)” value was “highly active catalyst”. In series [5] (two-phase system, presence of a reducing agent), the antioxidant capacity result is reported as “best antioxidant capacity”. Also, the “inhibition of lipid peroxidation” value in the series on liver microsomes is “potent inhibitor”.
